Results on five molecules are retold here after article PMC6441926 (Molecular Oncology, 2019).

Residues, ends and D or L forms follow the SMILES beside them. *: point of attachment. Cbz = O=C(OCc1ccccc1)*

In one series the test system is A549 cells. Description: CCK-8 cell viability assay, A549. It counts as cell-based. The note with it: for IC50: Homo sapiens, A549, CCK-8, 48 h, EGFR wild-type. Here is the method: Cell proliferation was measured by Cell Counting Kit‐8 (CCK‐8) assay (Bestbio, Shanghai, China). Cells were cultured in 96‐well plates at a concentration of 7 × 10^3/well for 24 h. If necessary, cells were pretreated with 25 or 50 μM of Z‐VAD‐FMK for 4 h. […] Supernatant was totally removed and 100 μL of CCK‐8 solution was added to each well and cultured for another 2 h at 37 °C. Cell viability was quantified using a SpectraMax M2e (Molecular Devices, San Jose, CA, USA) at 450 nm. Cell viability was calculated for each well as (absorbance 450 nm of treated cells/absorbance 450 nm of control cells) × 100%. Assays were performed on three independent experiments.
A general note: Tetrazolium assays rely on reduction of a dye to a coloured formazan, in cell work by metabolically active cells.

In series [1] the test system is primary lung cancer cells. Description: Collagen gel droplet embedded 3D-culture (CD-DST) of primary lung cancer cells. Type of series: cell-based. The note with it: Homo sapiens; 15 primary lung cancer samples, 4 μM for 24 h, then cultured another 5 days, neutral red; read-out: viable cell percentage. The protocol: Collagen gel droplet embedded 3D‐culture system (CD‐DST) system was performed using a Tumor chemo‐sensitivity assay kit provided by Guangzhou Darui Biotechnology Co., Ltd (Guangzhou, China) (Hou et al., 2017). Briefly, 0.1–0.5 g freshly dissected human lung cancer tissues were digested by trypsin and incubated in collagen gel‐coated flasks. Then, cells were collected and incubated in a collagen gel droplet at the density of 4000 cells per droplet (the volume of each droplet was 30 μL). […] Cells were visualized by neutral red stain and observed using cell analysis system DR6690 (Guangzhou Darui Biotechnology Co., Ltd). Survival rates were calculated as (absorbance 540 nm of treatment group/absorbance 540 nm of control group) × 100%.
Table S2. Cell viability of 15 primary lung cancer cells after treatment with 4 μM of compounds for 24 h, and cultured for another 120 h before neutral red stain and fixation. Cell viability was calculated observed using specific cell analysis system DR6690 (Guangzhou Darui Biotechnology Co., Ltd, Guangzhou, China). Survival rates were calculated as (O.D. 540nm treatment group/O.D. 540nm control group) × 100%.

The next series concerns the target PI3Ka (Homo sapiens, UniProt P42336). Description: Kinase inhibition ELISA, PI3Ka. It counts as biochemical. The settings on record: ELISA kinase assay. From the text: (§1) ELISA was used to determine the inhibitory effect of Ibr‐7 on five kinases after molecular modification. […] Since p‐S6 is the downstream functional factor that controls the translational process, we attempted to determine the role of p‐S6 in the Ibr‐7 antitumor effect.

Series [2] concerns the target mTOR (Homo sapiens, UniProt P42345). Description: Kinase inhibition ELISA, mTOR. The note with it: ELISA kinase assay. It counts as biochemical.
Excerpt: as §1

For another series, the system named is H1975 cells. Description: CCK-8 cell viability assay, H1975. It counts as cell-based. The note with it: Homo sapiens, NCI-H1975; CCK-8, 48 h, EGFR L858R/T790M. Here is the method: (§2) Cell proliferation was measured by Cell Counting Kit‐8 (CCK‐8) assay (Bestbio, Shanghai, China). Cells were cultured in 96‐well plates at a concentration of 7 × 10^3/well for 24 h. If necessary, cells were pretreated with 25 or 50 μM of Z‐VAD‐FMK for 4 h. Then cells were treated with indicated concentrations of compounds for 48 h. Supernatant was totally removed and 100 μL of CCK‐8 solution was added to each well and cultured for another 2 h at 37 °C. Cell viability was quantified using a SpectraMax M2e (Molecular Devices, San Jose, CA, USA) at 450 nm. Cell viability was calculated for each well as (absorbance 450 nm of treated cells/absorbance 450 nm of control cells) × 100%. Assays were performed on three independent experiments.

The next series deals with Mcl-1. Description: Western blot of Mcl-1 protein level in A549 cells. It counts as cell-based. The settings on record: 8 h. (In general: A western blot detects proteins with antibodies after separation by electrophoresis.)
The subject of the next series is PC-9 cells. Description: CCK-8 cell viability assay, PC-9. It counts as cell-based. The settings on record: Homo sapiens, CCK-8, 48 h, EGFR exon 19 deletion. The protocol: as §2
In series [3] the target is T1, EGFR (Homo sapiens, UniProt P00533). Description: Kinase inhibition ELISA, EGFR. Type of series: biochemical. The note with it: ELISA kinase assay.
Excerpt: as §1

Another series concerns EIF2S2. Description: SILAC phosphoproteomics in A549 cells, EIF2S2. The settings on record: 8 μM, 8 h, treated versus untreated. Type of series: cell-based. The protocol:
(§3) A549 cells were cultured in F12 and supplemented with either (U‐12C6)‐L‐lysine (light) or (U‐13C6)‐L‐lysine (heavy) for at least eight generations. The heavy labeling efficiency was measured by mass spectrometer analysis. Cells were continuously maintained in SILAC medium until they reached the desired confluence. Cells were treated with 8 μM of Ibr‐7 for 8 h, and then harvested by trypsinization. The enriched fractions were analyzed by mass spectrometry.

In another series the target is AKT1 (Homo sapiens, UniProt P31749). Description: Kinase inhibition ELISA, AKT1. The note with it: ELISA kinase assay. Type of series: biochemical.
Excerpt: as §1
(In an ELISA, binding on a coated surface is turned into a signal by an enzyme label.)

The subject of another series is RPS6KA1. Description: SILAC phosphoproteomics in A549 cells, RPS6KA1. The note with it: 8 μM, 8 h, treated versus untreated. Type of series: cell-based. Here is the method:
as §3

The nature of series [4]: Pharmacokinetics in SD rat. It counts as in vivo. The settings on record: po, intragastric 30 mg/kg. The protocol:
Table S3. PK parameters of Ibr-7 in SD rat (i.g 30 mg/kg). Ibr-7 was orally administrated at the dose of 30 mg/kg. At each time point, 0.1 ml of rat blood was gained through retro-orbital plexus and then centrifuged at 5,000 rpm, 4 ℃ for 10 min. 10 μl of sample was mixed with 100 μl of internal reference (Buspirone 50 ng/ml, terfenadine 50 ng/ml), and vortexed for 60 s. After centrifuging at 12,000 rpm for 3 min, the supernatant was collected and transferred to an equal volume of distilled water into the 96-well plate. The final injection volume was 10 μl. Samples were analyzed by LC-MS/MS (API 4000QTRAP) and data was processed by Analyst v 1.5.1.

Series [5] relates to mTOR. Description: SILAC phosphoproteomics in A549 cells, mTOR. It counts as cell-based. The settings on record: 8 μM, 8 h, treated versus untreated. Here is the method: as §3
Series [6] addresses T1, EGFR. Description: SILAC phosphoproteomics in A549 cells, EGFR. Type of series: cell-based. The settings on record: 8 μM, 8 h, treated versus untreated. Here is the method:
as §3

The next series relates to H460 cells. Description: CCK-8 cell viability assay, H460. It counts as cell-based. The settings on record: Homo sapiens, NCI-H460; CCK-8, 48 h, EGFR wild-type. Here is the method:
as §2

For a further series, the system named is LARP1. Description: SILAC phosphoproteomics in A549 cells, LARP1. It counts as cell-based. The settings on record: 8 μM, 8 h, treated versus untreated. The protocol: as §3
For another series, the target named is p70S6K (Homo sapiens, UniProt P23443). Description: Kinase inhibition ELISA, p70S6K. Type of series: biochemical. The note with it: ELISA kinase assay.
Excerpt: as §1

The next series deals with A549 xenograft. Description: A549 tumor xenograft assay. It counts as in vivo. The note with it: A549 xenograft nude mice, 60 mg·kg^−1 intragastric twice per day. Here is the method:
All animal experiments were conducted according to the Institutional Animal Care and Use Committee (IACUC). A total of 5 × 10^6 A549 cells was resuspended in 200 μL PBS and injected subcutaneously into each 4‐week‐old female nude mice. Once the tumor volume had reached 100–200 mm^3, six mice were randomized into each group. […] Then, 2.375 mL of 20% HP‐beta‐cyclodextrin was added to the above mixture to make a final concentration of 6 mg·mL^−1. […] Tumor volumes were determined from caliper measurements of tumor length (L) and width (W) according to the formula (L × W^2)/2. The relative tumor volume (RTV) was calculated using the following formula: RTV = (tumor volume on measured day)/(tumor volume on day 0).

A further series concerns RPS6. Description: SILAC phosphoproteomics in A549 cells, RPS6. The settings on record: 8 μM, 8 h, treated versus untreated. It counts as cell-based. Here is the method: as §3

T1 sequence (P00533 25-1210): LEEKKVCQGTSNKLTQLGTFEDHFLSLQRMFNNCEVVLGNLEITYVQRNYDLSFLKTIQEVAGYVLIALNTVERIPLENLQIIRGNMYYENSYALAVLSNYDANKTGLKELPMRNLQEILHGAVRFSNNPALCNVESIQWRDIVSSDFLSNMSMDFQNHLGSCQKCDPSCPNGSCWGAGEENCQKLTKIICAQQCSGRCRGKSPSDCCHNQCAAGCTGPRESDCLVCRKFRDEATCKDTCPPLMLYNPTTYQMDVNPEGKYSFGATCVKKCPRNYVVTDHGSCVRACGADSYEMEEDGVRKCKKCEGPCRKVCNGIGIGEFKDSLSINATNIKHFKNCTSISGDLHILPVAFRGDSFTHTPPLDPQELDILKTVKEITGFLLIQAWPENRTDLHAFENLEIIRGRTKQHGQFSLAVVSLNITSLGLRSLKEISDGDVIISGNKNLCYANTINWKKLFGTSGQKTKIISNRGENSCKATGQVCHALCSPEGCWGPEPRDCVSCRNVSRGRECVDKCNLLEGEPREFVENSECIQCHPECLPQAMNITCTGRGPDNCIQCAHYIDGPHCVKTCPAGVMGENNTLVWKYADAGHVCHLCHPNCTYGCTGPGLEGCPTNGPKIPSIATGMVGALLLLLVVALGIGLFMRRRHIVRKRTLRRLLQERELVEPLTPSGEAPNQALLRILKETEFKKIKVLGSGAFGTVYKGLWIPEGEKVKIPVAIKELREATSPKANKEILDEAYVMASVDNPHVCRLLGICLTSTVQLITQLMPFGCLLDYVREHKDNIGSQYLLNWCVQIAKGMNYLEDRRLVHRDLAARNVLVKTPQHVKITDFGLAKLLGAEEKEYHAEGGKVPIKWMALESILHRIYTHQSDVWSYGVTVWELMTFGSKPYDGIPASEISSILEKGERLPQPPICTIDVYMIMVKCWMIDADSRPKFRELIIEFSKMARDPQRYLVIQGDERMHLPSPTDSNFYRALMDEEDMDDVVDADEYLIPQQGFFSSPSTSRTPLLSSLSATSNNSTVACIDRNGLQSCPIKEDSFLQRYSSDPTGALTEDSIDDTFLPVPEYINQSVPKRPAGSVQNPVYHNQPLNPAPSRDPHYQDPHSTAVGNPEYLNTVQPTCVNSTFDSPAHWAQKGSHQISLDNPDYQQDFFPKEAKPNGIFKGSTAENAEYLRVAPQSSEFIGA
Chain of PI3Ka (P42336 whole entry): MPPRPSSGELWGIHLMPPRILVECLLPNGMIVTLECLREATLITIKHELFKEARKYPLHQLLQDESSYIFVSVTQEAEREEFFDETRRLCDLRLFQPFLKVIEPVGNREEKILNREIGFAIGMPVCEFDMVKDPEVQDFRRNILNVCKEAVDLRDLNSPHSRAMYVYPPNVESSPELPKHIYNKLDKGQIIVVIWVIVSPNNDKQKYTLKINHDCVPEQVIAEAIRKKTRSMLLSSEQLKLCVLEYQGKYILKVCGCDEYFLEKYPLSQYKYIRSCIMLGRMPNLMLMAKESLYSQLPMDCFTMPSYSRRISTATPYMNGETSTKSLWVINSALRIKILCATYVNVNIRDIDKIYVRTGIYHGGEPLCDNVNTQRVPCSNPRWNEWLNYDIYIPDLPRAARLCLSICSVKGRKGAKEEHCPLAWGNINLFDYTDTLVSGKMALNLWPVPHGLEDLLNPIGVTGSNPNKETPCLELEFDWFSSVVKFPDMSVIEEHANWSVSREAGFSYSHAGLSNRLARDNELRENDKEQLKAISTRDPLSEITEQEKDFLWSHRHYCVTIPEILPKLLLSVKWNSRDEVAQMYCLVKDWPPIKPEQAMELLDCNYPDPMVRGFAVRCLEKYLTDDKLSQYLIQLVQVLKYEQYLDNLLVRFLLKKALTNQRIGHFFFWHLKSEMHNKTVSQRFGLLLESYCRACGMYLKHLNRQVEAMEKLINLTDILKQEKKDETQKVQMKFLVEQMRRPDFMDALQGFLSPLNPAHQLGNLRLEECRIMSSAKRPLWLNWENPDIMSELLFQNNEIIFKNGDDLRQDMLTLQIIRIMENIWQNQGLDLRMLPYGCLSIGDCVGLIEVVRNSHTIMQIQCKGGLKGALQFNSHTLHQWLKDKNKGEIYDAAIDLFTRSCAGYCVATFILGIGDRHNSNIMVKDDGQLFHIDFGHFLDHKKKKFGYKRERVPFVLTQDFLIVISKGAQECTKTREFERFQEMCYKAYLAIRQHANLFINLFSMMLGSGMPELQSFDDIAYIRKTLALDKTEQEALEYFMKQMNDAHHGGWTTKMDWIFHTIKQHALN
Chain of PI3Ka (P27986 whole entry partner): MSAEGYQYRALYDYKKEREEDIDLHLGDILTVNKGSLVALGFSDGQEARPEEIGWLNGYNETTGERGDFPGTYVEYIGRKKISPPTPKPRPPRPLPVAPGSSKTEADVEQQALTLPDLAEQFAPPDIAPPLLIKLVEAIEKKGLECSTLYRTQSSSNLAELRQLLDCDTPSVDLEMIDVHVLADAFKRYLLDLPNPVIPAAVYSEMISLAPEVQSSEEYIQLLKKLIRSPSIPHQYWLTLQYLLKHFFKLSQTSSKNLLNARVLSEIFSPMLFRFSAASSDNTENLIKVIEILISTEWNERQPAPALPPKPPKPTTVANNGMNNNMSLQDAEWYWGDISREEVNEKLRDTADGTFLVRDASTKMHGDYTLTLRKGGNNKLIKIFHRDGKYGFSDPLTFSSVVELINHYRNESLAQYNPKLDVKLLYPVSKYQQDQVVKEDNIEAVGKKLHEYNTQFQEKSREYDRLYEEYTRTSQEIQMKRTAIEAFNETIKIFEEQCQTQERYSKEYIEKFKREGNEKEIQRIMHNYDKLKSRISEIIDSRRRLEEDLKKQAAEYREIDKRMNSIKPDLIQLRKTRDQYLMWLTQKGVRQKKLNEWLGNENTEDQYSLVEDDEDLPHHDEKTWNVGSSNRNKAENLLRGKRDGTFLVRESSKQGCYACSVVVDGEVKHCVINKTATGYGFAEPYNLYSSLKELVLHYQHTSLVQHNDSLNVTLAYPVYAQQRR
Chain of AKT1 (P31749 whole entry): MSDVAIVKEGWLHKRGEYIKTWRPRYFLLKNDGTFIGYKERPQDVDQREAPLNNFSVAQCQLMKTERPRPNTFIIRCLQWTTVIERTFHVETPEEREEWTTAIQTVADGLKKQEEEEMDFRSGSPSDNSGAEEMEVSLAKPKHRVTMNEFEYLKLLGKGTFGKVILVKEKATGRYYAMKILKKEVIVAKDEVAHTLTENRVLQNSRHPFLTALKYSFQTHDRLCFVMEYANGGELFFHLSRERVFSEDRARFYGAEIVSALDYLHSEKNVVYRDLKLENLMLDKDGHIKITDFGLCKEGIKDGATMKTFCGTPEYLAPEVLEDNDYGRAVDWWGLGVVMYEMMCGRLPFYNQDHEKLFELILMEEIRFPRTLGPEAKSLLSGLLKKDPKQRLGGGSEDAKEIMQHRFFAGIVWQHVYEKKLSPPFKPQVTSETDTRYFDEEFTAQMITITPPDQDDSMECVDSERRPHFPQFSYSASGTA
Chain of p70S6K (P23443 whole entry): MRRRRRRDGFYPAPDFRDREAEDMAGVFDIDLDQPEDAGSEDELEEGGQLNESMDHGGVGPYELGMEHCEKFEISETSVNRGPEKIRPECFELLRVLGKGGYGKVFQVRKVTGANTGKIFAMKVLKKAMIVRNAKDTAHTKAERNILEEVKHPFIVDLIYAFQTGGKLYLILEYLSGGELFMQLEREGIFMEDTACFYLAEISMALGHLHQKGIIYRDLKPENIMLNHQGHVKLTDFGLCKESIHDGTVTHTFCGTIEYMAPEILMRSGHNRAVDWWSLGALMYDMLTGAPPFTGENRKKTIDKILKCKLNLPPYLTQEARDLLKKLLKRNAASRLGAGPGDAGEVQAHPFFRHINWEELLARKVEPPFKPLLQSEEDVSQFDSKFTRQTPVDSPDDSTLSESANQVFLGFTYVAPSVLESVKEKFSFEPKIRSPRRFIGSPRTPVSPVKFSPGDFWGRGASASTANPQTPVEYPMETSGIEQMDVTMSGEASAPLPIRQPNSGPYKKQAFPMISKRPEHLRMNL
Experimental for Mcl-1: After treated with different concentrations of compounds, total proteins were extracted using RIPA lysing buffer. […] The membranes were blocked with 5% non‐fat milk at room temperature for 1 h, and then incubated with primary antibodies overnight at 4 °C. After washing with Tris buffered saline with Tween 20 (TBST), membranes were incubated with secondary antibodies at room temperature for another 1 h. The protein bands were visualized by adding ECL system WBKLS0050 (EMD Millipore, Billerica, MA, USA) and analyzed using Bio‐Rad Laboratories Quantity One software (Bio‐Rad).

`CC(C)C[C@@H](C=O)NC(=O)[C@H](CC(C)C)NC(=O)[C@H](CC(C)C)NC(=O)OCc1ccccc1` [MG‐132] (Cbz-Leu-Leu-Leu-aldehyde): the “cytotoxicity on A549 cells” value in the series with A549 cells (10 μM, 24 h, CCK-8) is reported as “no cytotoxicity effect”.
For `C=CC(=O)N1CCC[C@@H](n2nc(-c3ccc(Oc4ccccc4)cc3)c3c(N)ncnc32)C1` [ibrutinib, Ibrutinib, reference compound], in series [1], the viability at 4 µM was 88.1%. Moreover, the IC50 against PI3Ka and on mTOR [2] was over 1 µM throughout.
Regarding `CC1(C)CCC(CN2CCN(c3ccc(C(=O)NS(=O)(=O)c4ccc(NCC5CCOCC5)c([N+](=O)[O-])c4)c(Oc4cnc5[nH]ccc5c4)c3)CC2)=C(c2ccc(Cl)cc2)C1` [ABT‐199], the IC50 in the series on H1975 cells and with A549 cells was over 10 µM in each case. The same molecule displayed a Mcl-1 band intensity with Mcl-1 of 1.30.
For `C=C(Br)C(=O)N1CCCC(n2nc(-c3ccc(Oc4ccccc4)cn3)c3c(N)ncnc32)C1` (centres unmarked) [Ibr‐7], the IC50 was 1 to 4 µM with PC-9 cells; 1 to 4 µM in the series on H1975 cells; 0.061 µM at EGFR [3]; 1 to 4 µM in the series on A549 cells; over 1 µM against PI3Ka; over 1 µM against AKT1. Moreover, the half-maximal inhibitory concentration (IC50) was over 1 µM on mTOR [2], 1 to 4 µM in the series with H460 cells and over 1 µM against p70S6K. In [1], the viability at 4 µM was determined as 40.3%. The “Decrease fold of phosphorylated EIF2S2, position 67” value with EIF2S2 is 1.99 fold. In addition, the “Decrease fold of phosphorylated EIF2S2, position 111” value in the series on EIF2S2 is 1.58 fold. Further, the “Decrease fold of phosphorylated RPS6KA1, position 359” value with RPS6KA1 is 1.59 fold. Moreover, in the series on RPS6KA1, the “Decrease fold of phosphorylated RPS6KA1, position 363” value worked out at 1.54 fold. Also, the Cmax in [4] stood at 304 ng/mL. Also, the “Decrease fold of phosphorylated mTOR, position 2481” value with mTOR [5] was 2.23 fold. On EGFR [6], the “Decrease fold of phosphorylated EGFR, position 693” value came out at 1.76 fold. The “Decrease fold of phosphorylated EGFR, position 991” value at EGFR [6] was found to be 2.03 fold. Also, the “Decrease fold of phosphorylated LARP1, position 548” value in the series with LARP1 is given as 1.90 fold. Also, the “Decrease fold of phosphorylated LARP1, position 766” value with LARP1 came out at 4.70 fold. For the same molecule, the “Decrease fold of phosphorylated LARP1, position 824” value with LARP1 is reported as 2.34 fold. The “anti-tumor activity by relative tumor volume (RTV)” value in the series with A549 xenograft was “the same anti‐tumor activity as ibrutinib”. Further, in the series on A549 xenograft, the “effect on mice bodyweight” value is “without affecting the mice bodyweight”. Also, the “Decrease fold of phosphorylated RPS6, position 244” value with RPS6 was 2.17 fold.
Turning to `C=CC(=O)Nc1cc(Nc2nccc(-c3cn(C)c4ccccc34)n2)c(OC)cc1N(C)CCN(C)C` [AZD‐9291], the viability at 4 µM in series [1] is 57%.

Broadly, the IC50 is the midpoint of a concentration-inhibition curve. In general, Cmax refers to the maximum level reached in the sampled fluid or tissue.
